PubChem BioAssay (NCI)
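Cells were grown in 96-well plates and exposed to each compound for 48 hours at five concentrations; endpoints were interpolated linearly between bracketing concentrations, or set to the highest concentration if not reached. Definition used: TGI = concentration required for complete inhibition of growth.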

What was measured:
Assay in all cases: NCI tumour cell line growth inhibition, 48 h
HCC-2998 colon = system: HCC-2998 colon
IGROV1 ovarian = system: IGROV1 ovarian
UACC-62 melanoma = system: UACC-62 melanoma
HOP-92 NSCLC = system: HOP-92 NSCLC
COLO 205 colon = system: COLO 205 colon
HCT-116 colon = system: HCT-116 colon
SF-539 CNS = system: SF-539 CNS
SN12C renal = system: SN12C renal
NCI-H522 lung = system: NCI-H522 lung
NCI-H226 lung = system: NCI-H226 lung
HOP-62 NSCLC = system: HOP-62 NSCLC
K-562 leukemia = system: K-562 leukemia
EKVX NSCLC = system: EKVX NSCLC
SR leukemia = system: SR leukemia
RXF-631 renal = system: RXF-631 renal
M19-MEL melanoma = system: M19-MEL melanoma
SF-268 CNS = system: SF-268 CNS
A498 renal = system: A498 renal
SK-MEL-5 melanoma = system: SK-MEL-5 melanoma
MOLT-4 leukemia = system: MOLT-4 leukemia
CAKI-1 renal = system: CAKI-1 renal
HL-60(TB) leukemia = system: HL-60(TB) leukemia
RPMI-8226 leukemia = system: RPMI-8226 leukemia
DLD-1 colon = system: DLD-1 colon
RXF 393 renal = system: RXF 393 renal
KM20L2 colon = system: KM20L2 colon
SF-295 CNS = system: SF-295 CNS
KM12 colon = system: KM12 colon
HT29 colon = system: HT29 colon
HCT-15 colon = system: HCT-15 colon
786-0 renal = system: 786-0 renal
SNB-78 CNS = system: SNB-78 CNS
SK-MEL-28 melanoma = system: SK-MEL-28 melanoma
TK-10 renal = system: TK-10 renal
MALME-3M melanoma = system: MALME-3M melanoma
SNB-19 CNS = system: SNB-19 CNS
M14 melanoma = system: M14 melanoma
SW-620 colon = system: SW-620 colon
OVCAR-8 ovarian = system: OVCAR-8 ovarian
DMS 114 small cell lung = system: DMS 114 small cell lung
LXFL 529 NSCLC = system: LXFL 529 NSCLC
NCI-H460 lung = system: NCI-H460 lung
XF 498 CNS = system: XF 498 CNS
SK-MEL-2 melanoma = system: SK-MEL-2 melanoma
OVCAR-3 ovarian = system: OVCAR-3 ovarian
DMS 273 small cell lung = system: DMS 273 small cell lung
U251 CNS = system: U251 CNS
OVCAR-5 ovarian = system: OVCAR-5 ovarian
ACHN renal = system: ACHN renal
OVCAR-4 ovarian = system: OVCAR-4 ovarian
SK-OV-3 ovarian = system: SK-OV-3 ovarian
SNB-75 CNS = system: SNB-75 CNS
NCI-H23 lung = system: NCI-H23 lung
HOP-18 NSCLC = system: HOP-18 NSCLC
LOX IMVI melanoma = system: LOX IMVI melanoma
A549 NSCLC = system: A549 NSCLC
UO-31 renal = system: UO-31 renal
UACC-257 melanoma = system: UACC-257 melanoma
CCRF-CEM leukemia = system: CCRF-CEM leukemia

For CCCCCCCCCCCCC(CC)CCCCC(=O)O (stereo not drawn), the TGI (HCC-2998 colon) was > 100 µM, the TGI (IGROV1 ovarian) was > 100 µM and the TGI (UACC-62 melanoma) was > 100 µM. For the same molecule, the TGI (HOP-92 NSCLC) was > 100 µM, the TGI (COLO 205 colon) was > 100 µM and the TGI (HCT-116 colon) was > 100 µM. For the same molecule, the TGI (SF-539 CNS) was > 59.2 µM, the TGI (SN12C renal) was > 100 µM and the TGI (NCI-H522 lung) was > 100 µM. For the same molecule, the TGI (NCI-H226 lung) was > 100 µM, the TGI (HOP-62 NSCLC) was > 100 µM and the TGI (K-562 leukemia) was > 100 µM. The TGI (EKVX NSCLC) was > 100 µM, the TGI (SR leukemia) was > 100 µM and the TGI (RXF-631 renal) was > 100 µM. For the same molecule, the TGI (M19-MEL melanoma) was > 100 µM, the TGI (SF-268 CNS) was > 100 µM and the TGI (A498 renal) was > 100 µM. The TGI (SK-MEL-5 melanoma) was > 100 µM, the TGI (MOLT-4 leukemia) was 69.7 µM and the TGI (CAKI-1 renal) was > 100 µM. For the same molecule, the TGI (HL-60(TB) leukemia) was > 90.4 µM, the TGI (RPMI-8226 leukemia) was > 100 µM and the TGI (DLD-1 colon) was > 100 µM. For the same molecule, the TGI (RXF 393 renal) was > 86.8 µM, the TGI (KM20L2 colon) was > 100 µM and the TGI (SF-295 CNS) was > 100 µM. For the same molecule, the TGI (KM12 colon) was > 100 µM, the TGI (HT29 colon) was > 100 µM and the TGI (HCT-15 colon) was > 100 µM. The TGI (786-0 renal) was > 100 µM, the TGI (SNB-78 CNS) was > 100 µM and the TGI (SK-MEL-28 melanoma) was > 100 µM. The TGI (TK-10 renal) was > 100 µM, the TGI (MALME-3M melanoma) was > 100 µM and the TGI (SNB-19 CNS) was > 100 µM. The TGI (M14 melanoma) was > 100 µM, the TGI (SW-620 colon) was > 100 µM and the TGI (OVCAR-8 ovarian) was > 100 µM. The TGI (DMS 114 small cell lung) was > 100 µM, the TGI (LXFL 529 NSCLC) was > 100 µM and the TGI (NCI-H460 lung) was > 100 µM. For the same molecule, the TGI (XF 498 CNS) was > 100 µM, the TGI (SK-MEL-2 melanoma) was > 100 µM and the TGI (OVCAR-3 ovarian) was > 100 µM. The TGI (DMS 273 small cell lung) was > 100 µM, the TGI (U251 CNS) was > 67.8 µM and the TGI (OVCAR-5 ovarian) was > 100 µM. For the same molecule, the TGI (ACHN renal) was > 100 µM, the TGI (OVCAR-4 ovarian) was > 100 µM and the TGI (SK-OV-3 ovarian) was > 100 µM. For the same molecule, the TGI (SNB-75 CNS) was > 100 µM, the TGI (NCI-H23 lung) was > 100 µM and the TGI (HOP-18 NSCLC) was > 100 µM. The TGI (LOX IMVI melanoma) was > 100 µM, the TGI (A549 NSCLC) was > 100 µM and the TGI (UO-31 renal) was > 100 µM. The TGI (UACC-257 melanoma) was > 100 µM and the TGI (CCRF-CEM leukemia) was 67.6 µM.
With CCCCCCC1=NOC(C(c2cc[nH]c2)N(C)[C@H](C(=O)OC)C(C)C)C1 (stereo partly drawn) the TGI (HCC-2998 colon) was > 100 µM, the TGI (IGROV1 ovarian) was > 100 µM and the TGI (UACC-62 melanoma) was > 100 µM. For the same molecule, the TGI (HOP-92 NSCLC) was > 100 µM, the TGI (COLO 205 colon) was 32.2 µM and the TGI (HCT-116 colon) was > 100 µM. The TGI (SF-539 CNS) was > 100 µM, the TGI (SN12C renal) was 51.6 µM and the TGI (NCI-H522 lung) was 33.9 µM. The TGI (NCI-H226 lung) was > 100 µM, the TGI (HOP-62 NSCLC) was > 100 µM and the TGI (K-562 leukemia) was > 100 µM. For the same molecule, the TGI (EKVX NSCLC) was > 100 µM, the TGI (SR leukemia) was 91.6 µM and the TGI (RXF-631 renal) was > 100 µM. For the same molecule, the TGI (M19-MEL melanoma) was > 100 µM, the TGI (SF-268 CNS) was > 100 µM and the TGI (A498 renal) was > 100 µM. The TGI (SK-MEL-5 melanoma) was > 100 µM, the TGI (MOLT-4 leukemia) was 62.7 µM and the TGI (CAKI-1 renal) was > 100 µM. For the same molecule, the TGI (HL-60(TB) leukemia) was 63.7 µM, the TGI (DLD-1 colon) was > 100 µM and the TGI (RXF 393 renal) was > 100 µM. For the same molecule, the TGI (KM20L2 colon) was > 100 µM, the TGI (SF-295 CNS) was > 100 µM and the TGI (KM12 colon) was 63.6 µM. For the same molecule, the TGI (HT29 colon) was > 100 µM, the TGI (786-0 renal) was > 100 µM and the TGI (SNB-78 CNS) was 87.1 µM. The TGI (SK-MEL-28 melanoma) was > 100 µM, the TGI (TK-10 renal) was > 100 µM and the TGI (MALME-3M melanoma) was > 100 µM. For the same molecule, the TGI (SNB-19 CNS) was > 100 µM, the TGI (M14 melanoma) was > 100 µM and the TGI (SW-620 colon) was 68 µM. For the same molecule, the TGI (OVCAR-8 ovarian) was > 100 µM, the TGI (DMS 114 small cell lung) was > 100 µM and the TGI (LXFL 529 NSCLC) was > 100 µM. The TGI (XF 498 CNS) was > 100 µM, the TGI (SK-MEL-2 melanoma) was 65.9 µM and the TGI (OVCAR-3 ovarian) was 77.6 µM. The TGI (DMS 273 small cell lung) was > 100 µM, the TGI (U251 CNS) was > 100 µM and the TGI (OVCAR-5 ovarian) was > 100 µM. The TGI (ACHN renal) was > 100 µM, the TGI (OVCAR-4 ovarian) was > 100 µM and the TGI (SK-OV-3 ovarian) was > 100 µM. The TGI (SNB-75 CNS) was > 100 µM, the TGI (NCI-H23 lung) was > 100 µM and the TGI (HOP-18 NSCLC) was > 100 µM. For the same molecule, the TGI (LOX IMVI melanoma) was 74.6 µM, the TGI (A549 NSCLC) was > 100 µM and the TGI (UO-31 renal) was > 100 µM. The TGI (UACC-257 melanoma) was > 100 µM and the TGI (CCRF-CEM leukemia) was 53.9 µM.
For CCSC1=CC(Cc2ccc(OC)cc2)N(C(=O)OC)C1 (stereo not drawn), the TGI (HCC-2998 colon) was > 100 µM, the TGI (IGROV1 ovarian) was > 100 µM and the TGI (UACC-62 melanoma) was > 100 µM. For the same molecule, the TGI (HOP-92 NSCLC) was > 100 µM, the TGI (COLO 205 colon) was > 100 µM and the TGI (HCT-116 colon) was > 100 µM. The TGI (SF-539 CNS) was > 100 µM, the TGI (SN12C renal) was > 100 µM and the TGI (NCI-H522 lung) was > 100 µM. The TGI (NCI-H226 lung) was > 100 µM, the TGI (HOP-62 NSCLC) was > 100 µM and the TGI (K-562 leukemia) was > 100 µM. The TGI (EKVX NSCLC) was > 100 µM, the TGI (SR leukemia) was > 100 µM and the TGI (RXF-631 renal) was > 100 µM. The TGI (M19-MEL melanoma) was > 100 µM, the TGI (SF-268 CNS) was > 100 µM and the TGI (A498 renal) was > 100 µM. The TGI (SK-MEL-5 melanoma) was > 100 µM, the TGI (MOLT-4 leukemia) was > 100 µM and the TGI (CAKI-1 renal) was > 100 µM. The TGI (HL-60(TB) leukemia) was 60.1 µM, the TGI (DLD-1 colon) was > 100 µM and the TGI (RXF 393 renal) was > 100 µM. The TGI (KM20L2 colon) was > 100 µM, the TGI (SF-295 CNS) was > 100 µM and the TGI (KM12 colon) was > 100 µM. The TGI (HT29 colon) was > 100 µM, the TGI (HCT-15 colon) was > 100 µM and the TGI (786-0 renal) was > 100 µM. For the same molecule, the TGI (SNB-78 CNS) was > 100 µM, the TGI (SK-MEL-28 melanoma) was > 100 µM and the TGI (TK-10 renal) was > 100 µM. For the same molecule, the TGI (MALME-3M melanoma) was > 100 µM, the TGI (SNB-19 CNS) was > 100 µM and the TGI (M14 melanoma) was > 100 µM. For the same molecule, the TGI (SW-620 colon) was > 100 µM, the TGI (OVCAR-8 ovarian) was > 100 µM and the TGI (DMS 114 small cell lung) was 73.7 µM. For the same molecule, the TGI (LXFL 529 NSCLC) was > 100 µM, the TGI (NCI-H460 lung) was > 100 µM and the TGI (XF 498 CNS) was > 100 µM. The TGI (SK-MEL-2 melanoma) was > 100 µM, the TGI (OVCAR-3 ovarian) was > 100 µM and the TGI (DMS 273 small cell lung) was > 100 µM. For the same molecule, the TGI (U251 CNS) was > 100 µM, the TGI (OVCAR-5 ovarian) was > 100 µM and the TGI (ACHN renal) was > 100 µM. The TGI (OVCAR-4 ovarian) was > 100 µM, the TGI (SK-OV-3 ovarian) was > 100 µM and the TGI (SNB-75 CNS) was > 100 µM. The TGI (NCI-H23 lung) was > 100 µM, the TGI (HOP-18 NSCLC) was > 100 µM and the TGI (LOX IMVI melanoma) was > 100 µM. The TGI (A549 NSCLC) was > 100 µM, the TGI (UO-31 renal) was > 100 µM and the TGI (UACC-257 melanoma) was > 100 µM. For the same molecule, the TGI (CCRF-CEM leukemia) was > 100 µM.
